Common to all, as to type: in vivo, human
The nature of data set [1]: Tegretol level in patient (Example 4). The settings on record: both before and after starting triacetyluridine, found subtherapeutic.
For data set [2], the system named is patients with mitochondrial renal tubular acidosis (RTA). Put plainly: Treatment of patients with mitochondrial renal tubular acidosis with triacetyluridine (Example 1). From the text: Four patients with mitochondrial renal tubular acidosis (RTA) were studied. Mitochondrial RTAs often defy simple classification as proximal (type II) or distal (type I) tubulopathies, as these patients are often mosaics and express features of both phenotypes leading to hyperchloremic (non-anion gap) metabolic acidosis.
Patient #1 was a person with Leigh syndrome, lactic acidemia, and complex I deficiency who required 200 mEq/day of NaHCO3 to compensate for renal losses of alkali, and maintain serum bicarbonate levels above 20 mEq/l, 1+ proteinuria, and significant aminoaciduria with hydroxyprolinuria.
Patient #2 was a person with Leigh syndrome, and complex IV (COX) deficiency, who also required 200 mEq/day of NaHCO3.
Patient #3 was a person with Leigh syndrome, lactic acidemia, 1+ proteinuria, and pyruvate dehydrogenase (PDH) deficiency, who required up to 210 mEq/day of NaHCO3.
Patient #4 was a person with 3-hydroxyisobutyric aciduria, lactic acidemia, and encephalomyopathy, who required 468 mEq/day of NaHCO3.
Blood and urine electrolytes, creatinine, pH, urinalysis, and venous blood gases were studied before and after treatment. Quantitative urine amino acids and organic acids were also obtained. Pre-enrollment doses of oral sodium bicarbonate were continued for the first 3 days of triacetyluridine treatment, then reduced weekly as tolerated to maintain serum bicarbonate above 20 mEq/1.
Patients received triacetyluridine 2 g/m^2 PO TID.

Data set [3] relates to child with MARIAHS syndrome. From the text: CMZ is a child with mitochondrial ataxia, recurrent infections, aphasia, hypouricemia/hypomyelination, and seizures ([…] syndrome), cared for […]. Symptoms indicate a primary deficiency in the enzyme dihydroorotate dehydrogenase, the rate-limiting step in de novo pyrimidine synthesis, which could lead to a functional dependence on exogenous uridine. […] treatment began with uridine. […] the treating agent was switched to triacetyluridine because it is a more easily absorbed form of uridine.

Data set [4] deals with adult with familial history of mitochondrial disease. From the text: KL is an adult who first came to the investigator's attention after the diagnosis of their son with mitochondrial disease leading to stroke-like episodes, ataxia, and encephalopathy. Before administration of triacetyluridine, KL suffered with recurrent pyelonephritis, infection-association neutropenia, […] migraines, grand-mal seizures, neurogenic bowel and bladder requiring QID catheterization, biliary […], dysphagia and pc cough, peripheral and autonomic polyneuropathy, painful paresthesias, cardiac conduction disturbances with SVT and tachy-brady syndrome, severe orthostatic hypotension, orthopnea, and poor functional capacity with inability to climb a flight of stairs without stopping to rest, and declining cognitive performance with episodes of clouded sensorium and poor memory that would last hours to days. KL started triacetyluridine at a dose of 0.05 g/kg/d.

In data set [5] the test system is child with refractory epilepsy and multiple mitochondrial DNA deletion syndrome. Kind of data set: Administration of triacetyluridine to a subject having multiple mitochondrial DNA deletion syndrome (Example 4). The settings on record: patient. From the text: patient one is a child with refractory epilepsy. As a 5th grader they were able to play little league baseball. […] This disorder produces multiple deleted copies of mitochondrial DNA and can lead to a number of symptoms. SK began deteriorating. They had 2 ICU admissions for crescendo epilepsy, and had 7 changes in their anticonvulsant regimen in the succeeding 4 months. They were having 8-10 grand-mal seizures every night, leaving them postictal for much of the morning. They also developed upper lip automaticity. The patient was initially administered 0.05 g/kg/day of triacetyluridine for one week, followed by 0.16 g/kg/day for 1 week, and then 0.24 g/kg/day.

Data set [6] relates to child with Leigh syndrome, lactic acidemia, and renal tubular acidosis. Kind of data set: Administration of triacetyluridine to a subject having Leigh syndrome (Example 5). From the text: patient two was a child with Leigh syndrome, lactic acidemia, and renal tubular acidosis who suffered a hypertensive crisis and acute edema as they came out of general anesthesia for replacement of an elective percutaneous gastrostomy tube (PEG). […] They developed pneumonia as a complication of PEG and developed new Leigh syndrome lesions in the spinal cord, midbrain, and thalamus. They drifted into a coma 3 days after PEG placement. The person received emergency treatment with triacetyluridine.

[7] abbreviates: Patient #1, triacetyluridine 2 g/m^2 PO TID.
[8] abbreviates: patient three, started at 0.05 g/kg/d.

For the molecule `NC(=O)N1c2ccccc2C=Cc2ccccc21` [tegretol], the tegretol level in data set [1] was 4 µg/mL.

Turning to `CC(=O)OC[C@H]1O[C@@H](n2ccc(=O)[nH]c2=O)[C@H](OC(C)=O)[C@@H]1OC(C)=O` [triacetyluridine, 2′, 3′, 5′-tri-O-acetyl-1-β-D-uridine], the “time to complete correction of RTA” value in data set [2] (Patient #1 (Leigh syndrome, complex I deficiency), triacetyluridine 2 g/m^2 PO TID) is no more than 24 h. In addition, in data set [2] (setting [7]), the “serum bicarbonate maintained without any further oral bicarbonate” value is listed as “more than 20 mEq/l” and the “time to complete resolution of hydroxyprolinuria” value is on record as no more than 2 weeks. Further, the urinary bicarbonate losses in data set [2] (Patient #2 (initially 99 mEq/l), after 36 hours on treatment, 2 g/m^2 PO TID) is reported as less than 5 mEq/l. Besides, in data set [2] (Patient #2, after 3 weeks of treatment, 2 g/m^2 PO TID), the “share of pre-enrollment dose of bicarbonate needed to maintain normal serum bicarbonate” value amounted to 25%. The molecule further had a urinary bicarbonate losses in data set [2] (Patient #3 (59 mEq/l prior to therapy), after 36 hours of treatment, 2 g/m^2 PO TID) of less than 5 mEq/l. Besides, in data set [2] (Patient #3, after 3 weeks of treatment, 2 g/m^2 PO TID), the “share of previous dose of bicarbonate required” value worked out at 10%. Also, the “reduction in oral bicarbonate requirement” value in data set [2] (Patient #4, following 1 week of treatment, 2 g/m^2 PO TID) came out at 35%. Besides, in data set [2] (patients with mitochondrial disease, 2 g/m^2 PO TID), the “patients in whom renal tubular acidosis was corrected or dramatically improved” value is on record as 4 out of 4. Moreover, in data set [3] (MARIAHS syndrome patient), the “overall condition and symptomotology (conclusion)” value was “dramatic improvement in the patient's condition, and a marked reduction in symptomotology”. Besides, the toxicity entry in data set [3] (human, in vivo) was “no biochemical, hematologic, or clinical toxicity”. For the same molecule, the truncal ataxia entry in data set [3] (patient four, uridine, then triacetyluridine) is “Mild truncal ataxia persists”. Also, the language and gait entry in data set [3] (patient four, within 2 months of a dose increase to 0.2 g/kg/day) is “rapid increase in expressive language acquisition and a narrowing of their previous broad-based, ataxic gait”. In data set [4] (human, in vivo), the cystic breast disease entry is “flared slightly”, the menstrual cycle entry is listed as “returned to normal” and the menstrual cycles result is recorded as “shortened from every 4 weeks to every 2 weeks”. Moreover, the “I&O catheterization required” value in data set [4] (patient three (before: QID catheterization), started at 0.05 g/kg/d) is listed as 1-2 times a week. Also, the functional capacity result in data set [4] (patient three, after 6 weeks of triacetyluridine) is recorded as “able to walk a full mile”. In addition, in data set [4] (setting [8]), the “pain of biliary dyssynergia” value was “gone”; the painful paresthesias result is “gone, although some numbness persists”; the “seizures and migraine since starting treatment” value is given as “has not had a seizure or migraine”; the sensorium entry is on record as “Her sensorium has cleared”. Further, in data set [4] (setting [8]), the tachy-brady syndrome entry was “persists”. The nocturnal seizure activity result in data set [5] (after increase to 0.24 g/kg/d with 0.5 g calcium pyruvate TID added, transient escalation, then after 3 days) is on record as “decreased to zero”. Further, in data set [5] (first three days, 0.05 g/kg/day), the “seizures and involuntary lip movements” value is recorded as “stopped completely”. The functional outcome in data set [5] (for several weeks) is “able to return to school and play little league baseball again”. The aminoaciduria result in data set [6] (patient two) is reported as “improved”. Also, the “need for supplemental bicarbonate” value in data set [6] (patient two (before: 25 mEg/kg/day)) was “did not require any further supplemental bicarbonate”. Moreover, the “time to complete resolution of renal tubular acidosis” value in data set [6] (patient two, emergency treatment with triacetyluridine) was no more than 12 h. In addition, the clinical outcome in data set [6] (patient two, in coma before treatment) was “never awoke from their coma, and died after a 4 week terminal illness”. For the same molecule, the “time until plasma amino acids returned to normal ranges” value in data set [6] (patient two, while receiving continuous parenteral nutrition) was no more than 2 h.

On to `O=c1ccn([C@@H]2O[C@H](CO)[C@@H](O)[C@H]2O)c(=O)[nH]1` [uridine, reference compound], for which the “follow-up brain MRI, white matter disease” value in data set [3] (patient four, after 20 months on uridine) was “no progression in their white matter disease”.

These data come from patent US8748408B2, “Methods of treatment of mitochondrial disorders” (The Regents of the University of California, priority 1999, dated 2014).
